Assay [1] concerns Trachea. Description: Inhibition of Ach-induced contraction in Sprague-Dawley rat trachea at 1 to 100 umol/L. In kind it is functional, tissue-based. Conditions: read-out: pA2 (converted).
Assay [2] has as its system Trachea. Briefly: Inhibition of Ach-induced contraction in Sprague-Dawley rat trachea. In kind it is functional, tissue-based.
Assay [3] concerns Trachea. Briefly: Inhibition of KCl-induced contraction in Sprague-Dawley rat trachea assessed as maximal diastolic rate at 10^-8 mol/L (reference value: 7 +/- 0.3%). The format is functional. On the set-up: scale not given: the % may be the effect or the level left.
The subject of assay [4] is Trachea. Briefly: Inhibition of KCl-induced contraction in Sprague-Dawley rat trachea assessed as maximal diastolic rate at 10^-9 mol/L (reference value: 5.9 +/- 1.8%). The format is functional. Set-up: scale not given: the % may be the effect or the level left.
For assay [5], the system named is Trachea. Description: Inhibition of KCl-induced contraction in Sprague-Dawley rat trachea assessed as maximal diastolic rate at 10^-7 mol/L (reference value: 7 +/- 0.8%). Set-up: scale not given: the % may be the effect or the level left. In kind it is functional.
The test system of assay [6] is Trachea. Description: Inhibition of KCl-induced contraction in Sprague-Dawley rat trachea assessed as maximal diastolic rate at 10^-6 mol/L (reference value: 6 +/- 1.2%). On the set-up: scale not given: the % may be the effect or the level left. The format is functional.
For assay [7], the system named is Trachea. Briefly: Inhibition of KCl-induced contraction in Sprague-Dawley rat trachea assessed as maximal diastolic rate at 10^-5 mol/L (reference value: 6 +/- 0.6%). The format is functional. On the set-up: scale not given: the % may be the effect or the level left.
Assay [8] relates to Trachea. Briefly: Inhibition of KCl-induced contraction in Sprague-Dawley rat trachea assessed as maximal diastolic rate at 10^-4 mol/L (reference value: 6.6 +/- 0.3%). On the set-up: scale not given: the % may be the effect or the level left. In kind it is functional.
Assay [9] concerns Trachea. Description: Inhibition of Ach-induced contraction in Sprague-Dawley rat trachea assessed as maximal diastolic rate at 10^-9 mol/L (reference value: 12.7 +/- 2.8%). The format is functional. Set-up: scale not given: the % may be the effect or the level left.
Assay [10] has as its system Trachea. Briefly: Inhibition of Ach-induced contraction in Sprague-Dawley rat trachea assessed as maximal diastolic rate at 10^-8 mol/L (reference value: 14 +/- 1.8%). In kind it is functional. Set-up: scale not given: the % may be the effect or the level left.
The test system of assay [11] is Trachea. Briefly: Inhibition of Ach-induced contraction in Sprague-Dawley rat trachea assessed as maximal diastolic rate at 10^-7 mol/L (reference value: 14.2 +/- 2.3%). In kind it is functional. On the set-up: scale not given: the % may be the effect or the level left.
Assay [12] concerns Trachea. Briefly: Inhibition of Ach-induced contraction in Sprague-Dawley rat trachea assessed as maximal diastolic rate at 10^-6 mol/L (reference value: 15.9 +/- 3%). In kind it is functional. Set-up: scale not given: the % may be the effect or the level left.
Assay [13] has as its system Trachea. Briefly: Inhibition of Ach-induced contraction in Sprague-Dawley rat trachea assessed as maximal diastolic rate at 10^-5 mol/L (reference value: 15.9 +/- 2.6%). In kind it is functional. On the set-up: scale not given: the % may be the effect or the level left.
Assay [14] relates to Trachea. Briefly: Inhibition of Ach-induced contraction in Sprague-Dawley rat trachea assessed as maximal diastolic rate at 10^-4 mol/L (reference value: 15 +/- 4.2%). In kind it is functional. Set-up: scale not given: the % may be the effect or the level left.
The test system of assay [15] is Trachea. Briefly: Inhibition of Ach-induced contraction in Sprague-Dawley rat trachea assessed as tracheal tension at 10^-9 mol/L (reference value: 0.63 to 0.98g). In kind it is functional.
Assay [16] deals with Trachea. Briefly: Inhibition of Ach-induced contraction in Sprague-Dawley rat trachea assessed as tracheal tension at 10^-8 mol/L (reference value: 0.63 to 0.98 g). In kind it is functional.
The test system of assay [17] is Trachea. Briefly: Inhibition of Ach-induced contraction in Sprague-Dawley rat trachea assessed as tracheal tension at 10^-7 mol/L (reference value: 0.63 to 0.98 g). The format is functional.
Assay [18] has as its system Trachea. Description: Inhibition of Ach-induced contraction in Sprague-Dawley rat trachea assessed as tracheal tension at 10^-6 mol/L (reference value: 0.63 to 0.98 g). The format is functional.
The subject of assay [19] is Trachea. Briefly: Inhibition of Ach-induced contraction in Sprague-Dawley rat trachea assessed as tracheal tension at 10^-5 mol/L (reference value: 0.63 to 0.98 g). In kind it is functional.
The test system of assay [20] is Trachea. Description: Inhibition of Ach-induced contraction in Sprague-Dawley rat trachea assessed as tracheal tension at 10^-4 mol/L (reference value: 0.63 to 0.98 g). The format is functional.
The test system of assay [21] is Trachea. Description: Inhibition of KCl-induced contraction in Sprague-Dawley rat trachea assessed as tracheal tension at 10^-9 mol/L (reference value: 2.16 to 2.59 g). In kind it is functional.
In assay [22] the test system is Trachea. Description: Inhibition of KCl-induced contraction in Sprague-Dawley rat trachea assessed as tracheal tension at 10^-8 mol/L (reference value: 2.16 to 2.59 g). The format is functional.
For assay [23], the system named is Trachea. Description: Inhibition of KCl-induced contraction in Sprague-Dawley rat trachea assessed as tracheal tension at 10^-7 mol/L (reference value: 2.16 to 2.59 g). In kind it is functional.
Assay [24] has as its system Trachea. Briefly: Inhibition of KCl-induced contraction in Sprague-Dawley rat trachea assessed as tracheal tension at 10^-6 mol/L (reference value: 2.16 to 2.59 g). In kind it is functional.
Assay [25] relates to Trachea. Description: Inhibition of KCl-induced contraction in Sprague-Dawley rat trachea assessed as tracheal tension at 10^-5 mol/L (reference value: 2.16 to 2.59 g). The format is functional.
Assay [26] concerns Trachea. Briefly: Inhibition of KCl-induced contraction in Sprague-Dawley rat trachea assessed as tracheal tension at 10^-4 mol/L (reference value: 2.16 to 2.59 g). In kind it is functional.

Here are results for seven compounds from ChEMBL document CHEMBL3785034, “New isosteroidal alkaloids with tracheal relaxant effect from the bulbs of Fritillaria pallidiflora Schrenk” (Bioorg Med Chem Lett, 2016).

Usually EC50 stands for the concentration that produces a half-maximal response. Take `Cn1c(=O)c2[nH]cnc2n(C)c1=O` [AMINOPHYLLINE]: in the assay on Trachea [1], the Kb is 0.0479 µM. Further, the EC50 with Trachea [2] is 0.05 µM.

Take `C[C@H]1CC[C@H]2[C@@H](C)[C@H]3CC[C@@H]4[C@@H](C[C@H]5[C@H]4CC(=O)[C@H]4C[C@@H](O)CC[C@@]45C)[C@@H]3CN2C1`: the Activity is given as 5.3% with Trachea [3]; 5.7% with Trachea [4]; 3.9% with Trachea [5]; 3.2% in the assay on Trachea [6]; 3.2% with Trachea [7]; 2.9% with Trachea [8]. Besides, the Activity came to 12.2% with Trachea [9]; 16.3% in the assay on Trachea [10]; 17.9% with Trachea [11]; 19.8% in the assay on Trachea [12]; 19.5% in the assay on Trachea [13]; 20.9% in the assay on Trachea [14]. For the same compound, the Activity is listed as 0.59 g with Trachea [15]; 0.56 g in the assay on Trachea [16]; 0.56 g in the assay on Trachea [17]; 0.55 g in the assay on Trachea [18]; 0.55 g with Trachea [19]; 0.54 g in the assay with Trachea [20]. Besides, the Activity in the assay on Trachea [21] is given as 2.16 g; with Trachea [22], 2.18 g; with Trachea [23], 2.2 g; in the assay with Trachea [24] it was 2.2 g; in the assay on Trachea [25], 2.2 g; with Trachea [26], 2.21 g.

For the compound `Cc1c([C@H](C)[C@@H]2NC[C@@H](C)C[C@H]2O)ccc2c1C[C@H]1[C@H]2CC(=O)[C@H]2C[C@@H](O)CC[C@@]21C`, the Activity in the assay with Trachea [3] stood at 4.8%; in the assay with Trachea [4], 5.7%; in the assay with Trachea [5] it was 6.1%; with Trachea [6] it was 7.2%; in the assay with Trachea [7] it was 8%; in the assay on Trachea [8], 13.9%. Besides, the Activity with Trachea [9] is 13.6%; with Trachea [10], 16%; with Trachea [11], 18.9%; in the assay on Trachea [12], 21.3%; in the assay on Trachea [13] it was 24.5%; with Trachea [14], 115.2%. Besides, the Activity with Trachea [15] was 0.54 g; in the assay on Trachea [16], 0.53 g; in the assay on Trachea [17] it was 0.52 g; in the assay with Trachea [18] it was 0.5 g; in the assay on Trachea [19], 0.48 g; with Trachea [20], -0.11 g. The Activity in the assay on Trachea [21] worked out at 2.23 g; with Trachea [22], 2.25 g; in the assay with Trachea [23], 2.22 g; with Trachea [24] it was 2.2 g; with Trachea [25], 2.18 g; with Trachea [26], 2.04 g.

As for `COC(=O)C1=C(C)NC(C)=C(C(=O)OC)C1c1ccccc1[N+](=O)[O-]` [NIFEDIPINE], the Kb in the assay on Trachea [1] was 6.03 µM. In the assay with Trachea [2], this compound yielded a concentration giving a half-maximal response (EC50) of 6.5 µM.

Take `C[C@@H]1CN[C@H]2[C@@H](C)[C@@]3(CC[C@]4(O)[C@@H]5CC(=O)[C@H]6C[C@@H](O)CC[C@]6(C)[C@H]5C[C@]45O[C@]53C)O[C@@H]2C1`: the Activity worked out at 5.1% in the assay on Trachea [3]; 6.3% in the assay on Trachea [4]; 5.6% in the assay on Trachea [5]; 4.5% with Trachea [6]; 3.3% in the assay on Trachea [7]; 2.1% in the assay with Trachea [8]. Also, the Activity is on record as 15.2% with Trachea [9]; 18.3% in the assay on Trachea [10]; 23% with Trachea [11]; 27.1% with Trachea [12]; 30.2% in the assay on Trachea [13]; 23.4% in the assay on Trachea [14]. Besides, the Activity in the assay with Trachea [15] worked out at 0.56 g; in the assay on Trachea [16], 0.55 g; with Trachea [17] it was 0.53 g; in the assay with Trachea [18], 0.52 g; in the assay on Trachea [19] it was 0.5 g; in the assay with Trachea [20], 0.53 g. The Activity was 2.34 g with Trachea [21]; 2.37 g in the assay with Trachea [22]; 2.36 g with Trachea [23]; 2.39 g in the assay with Trachea [24]; 2.42 g with Trachea [25]; 2.45 g in the assay on Trachea [26].

As to `C[C@H]1CC[C@@H]2N(C1)C[C@H]1[C@@H]3C[C@H]4[C@@H](CC(=O)[C@H]5C[C@@H](O[C@@H]6O[C@H](CO)[C@@H](O)[C@H](O)[C@H]6O)CC[C@@]54C)[C@@H]3CC[C@H]1[C@]2(C)O`, the Activity in the assay on Trachea [3] is reported as 5.2%; with Trachea [4], 7.5%; in the assay with Trachea [5], 5.2%; in the assay on Trachea [6] it was 5.3%; in the assay on Trachea [7] it was 4.5%; with Trachea [8] it was 3%. Moreover, the Activity in the assay on Trachea [9] stood at 12.6%; with Trachea [10], 15.2%; in the assay with Trachea [11], 17.7%; with Trachea [12] it was 20.5%; in the assay on Trachea [13], 22.7%; with Trachea [14], 129.3%. Further, the Activity with Trachea [15] is given as 0.81 g; in the assay with Trachea [16] it was 0.78 g; with Trachea [17], 0.76 g; in the assay with Trachea [18], 0.74 g; with Trachea [19], 0.71 g; in the assay on Trachea [20], -0.13 g. In addition, the Activity with Trachea [21] is recorded as 2.4 g; with Trachea [22] it was 2.45 g; in the assay on Trachea [23], 2.45 g; in the assay with Trachea [24] it was 2.45 g; with Trachea [25], 2.47 g; with Trachea [26], 2.52 g.

With `C[C@H]1CC[C@H]2[C@@](C)(O)[C@@H]3CC[C@@H]4[C@@H](C[C@H]5[C@H]4CC(=O)[C@H]4C[C@@H](O)CC[C@@]45C)[C@@H]3C[N+]2([O-])C1` (some centres undefined), the Activity with Trachea [3] was found to be 6.9%; with Trachea [4] it was 6.4%; in the assay on Trachea [5], 6.7%; in the assay on Trachea [6] it was 5.5%; with Trachea [7], 6.1%; with Trachea [8] it was 5.7%. The Activity in the assay on Trachea [9] was found to be 15.6%; in the assay with Trachea [10] it was 17.2%; in the assay with Trachea [11], 27%; with Trachea [12], 25.8%; with Trachea [13], 21.6%; with Trachea [14], 31.3%. The Activity amounted to 0.61 g with Trachea [15]; 0.6 g in the assay on Trachea [16]; 0.56 g with Trachea [17]; 0.57 g in the assay with Trachea [18]; 0.58 g with Trachea [19]; 0.55 g in the assay on Trachea [20]. For the same compound, the Activity in the assay on Trachea [21] is reported as 2.3 g; in the assay with Trachea [22], 2.29 g; in the assay with Trachea [23] it was 2.3 g; with Trachea [24] it was 2.32 g; in the assay on Trachea [25] it was 2.31 g; in the assay on Trachea [26], 2.31 g.
